From PMC8510344, “Bile-Acid-Appended Triazolyl Aryl Ketones: Design, Synthesis, In Vitro Anticancer Activity and Pharmacokinetics in Rats” (Molecules, 2021)

Experiments:
[1] = test system: MCF-7 (human breast adenocarcinoma) cells; test: MTT cytotoxicity assay, MCF-7; type: cell-based; settings: Homo sapiens, MCF7, 10 µM, 48 h exposure, read-out: % Cell Viability at 10 µM MCF-7
Experimental: (§1) The cytotoxicity activity of all the conjugates (6aa–6df) was evaluated in vitro by MTT assay against two different breast cancer cell lines 4T1 (murine) and MCF-7 (human) and HEK 293 (human) as normal cell line. DTX was used as positive control. Cells were grown in DMEM supplemented with 10% FBS and 1% antibiotic solution and incubated at 5% CO2 and 37 °C for 24 h. The stock solutions of all the conjugates were prepared in DMSO and diluted for further use. Briefly, 5 × 10^3 cells/well were seeded in 96-well cell culture plates and allowed to adhere for 24 h. Cell inhibition (%) was determined after 48 h exposure to the compounds at 1–25 μM concentration. After 48 h, MTT assay was performed and the yellow tetrazolium salt (MTT) was reduced in metabolically active cells to form insoluble purple formazan crystals, which were solubilized by the addition of DMSO. The optical density (OD) was recorded at 560 nm and 630 nm as reference wavelength. Percentage cell inhibition was determined by comparison with untreated cells.

[2] = test system: 4T1 (mouse mammary carcinoma) cells; test: MTT cytotoxicity assay, 4T1; type: cell-based; settings: for IC50: 48 h; for viability at 10 µM: 48 h exposure, read-out: % Cell Viability at 10 µM 4T1
Experimental: as §1

[3] = MTT cytotoxicity assay, normal cell line HEK 293; type: cell-based; settings: human, HEK 293 cells, HEK 293 normal cells, 48 h exposure
Experimental: as §1

[4] = test system: MCF-7 cells; test: Annexin V/PI apoptosis assay by flow cytometry, MCF-7; type: cell-based, human; settings: 6af at 2.61 µM, 6cf at 5.71 µM (respective IC50), 48 h
Experimental: (§2) The extent of apoptosis induced by compounds 6af and 6cf in MCF-7 and 4T1 cells was quantified by flow cytometry according to the manufacturer’s protocol. Briefly, cells were seeded in a 6-well plate at a cell density of 1 × 10^6 cells/well. After 24 h, the media was discarded and cells were treated with fresh media containing compounds 6af and 6cf at their respective IC50 concentrations for 48 h. After treatment, cells were trypsinized, harvested in PBS and collected by centrifugation for 5 min at 2000 rpm. Cells were then resuspended in 1X binding buffer and stained with FITC-labeled Annexin V Alexa Fluor 488 (5 μL) and propidium iodide (10 μL). Cells were analyzed using flow cytometer (Beckman Coulter), and data were analyzed with CytExpert software.

[5] = test system: 4T1 cells; test: Annexin V/PI apoptosis assay by flow cytometry, 4T1; type: cell-based, mouse; settings: 6af at 12.84 µM, 6cf at 8.76 µM (respective IC50), 48 h
Experimental: as §2

[6] = test system: Human cervix cancer cell line (HeLa); design: method as in PMID 23884119, PMID 25476168, PMID 30220830, PMID 23584541, PMID 28158265; settings: literature example of Figure 1, cited from earlier work

Compound	viability at 10 µM [1]	IC50 [2]	viability at 10 µM ([2]; Mus musculus)	IC50 ([2]; Mus musculus)	viability at 48 h, 10 µM [3]	apoptosis (total) in MCF-7 cells [4]	total apoptosis in 4T1 cells [5]	melting point	% Growth Inhibition at 30 μM HeLa [6]	IC50 [6]
C[C@H](CCC(=O)OCc1cn(CC(=O)c2ccc(Br)cc2)nn1)C1CCC2C3C(C[C@H](O)[C@@]21C)[C@@]1(C)CC[C@@H](O)CC1C[C@H]3O (stereo partly drawn) [6af, (1-(2-(4-Bromophenyl)-2-oxoethyl)-1H-1,2,3-triazol-4-yl)methyl (4R)-4-((3R,7R,10S,12S,13R)-3,7,12-trihydroxy-10,13-dimethylhexadecahydro-1H-cyclopenta[a]phenanthren-17-yl)pentanoate]	26.5%	12.8 ± 1.8 µM	55.9%	< 19 µM	> 86%	33.89%	19.02%	159 to 160 °C		
C[C@H](CCC(=O)NCc1cn(CC(=O)c2ccc(Cl)cc2)nn1)C1CCC2C3C(C[C@H](O)[C@@]21C)[C@@]1(C)CC[C@@H](O)CC1C[C@H]3O (stereo partly drawn) [6ce, (4R)-N-((1-(2-(4-Chlorophenyl)-2-oxoethyl)-1H-1,2,3-triazol-4-yl)methyl)-4-((3R,7R,10S,12S,13R)-3,7,12-trihydroxy-10,13-dimethylhexadecahydro-1H-cyclopenta[a]phenanthren-17-yl)pentanamide]	69.2%		50.6%		92.7%			154 to 155 °C		
C[C@H](CCC(=O)NCc1cn(CC(=O)c2ccccc2)nn1)C1CCC2C3CCC4C[C@H](O)CC[C@]4(C)C3C[C@H](O)[C@@]21C (stereo partly drawn) [6da, (4R)-4-((3R,10S,12S,13R)-3,12-Dihydroxy-10,13-dimethylhexadecahydro-1H-cyclopenta[a]phenanthren-17-yl)-N-((1-(2-oxo-2-phenylethyl)-1H-1,2,3-triazol-4-yl)methyl)pentanamide]	91.2%		99.6%		97.9%			135 to 136 °C		
Cc1ccc(C(=O)Cn2cc(CNC(=O)CC[C@@H](C)C3CCC4C5CCC6C[C@H](O)CC[C@]6(C)C5C[C@H](O)[C@@]43C)nn2)cc1 (stereo partly drawn) [6db, (4R)-4-((3R,10S,12S,13R)-3,12-Dihydroxy-10,13-dimethylhexadecahydro-1H-cyclopenta[a]phenanthren-17-yl)-N-((1-(2-oxo-2-(p-tolyl)ethyl)-1H-1,2,3-triazol-4-yl)methyl)pentanamide]	78.7%		53.7%		89.4%			112 to 115 °C		
COc1ccc(C(=O)Cn2cc(CNC(=O)CC[C@@H](C)C3CCC4C5CCC6C[C@H](O)CC[C@]6(C)C5C[C@H](O)[C@@]43C)nn2)cc1 (stereo partly drawn) [6dc, (4R)-4-((3R,10S,12S,13R)-3,12-Dihydroxy-10,13-dimethylhexadecahydro-1H-cyclopenta[a]phenanthren-17-yl)-N-((1-(2-(4-methoxyphenyl)-2-oxoethyl)-1H-1,2,3-triazol-4-yl)methyl)pentanamide]	68.5%		64.9%		86.5%			114 to 115 °C		
C[C@H](CCC(=O)NCc1cn(CC(=O)c2ccc(F)cc2)nn1)C1CCC2C3CCC4C[C@H](O)CC[C@]4(C)C3C[C@H](O)[C@@]21C (stereo partly drawn) [6dd, (4R)-4-((3R,10S,12S,13R)-3,12-Dihydroxy-10,13-dimethylhexadecahydro-1H-cyclopenta[a]phenanthren-17-yl)-N-((1-(2-(4-fluorophenyl)-2-oxoethyl)-1H-1,2,3-triazol-4-yl)methyl)pentanamide]	73.8%		89.9%		81.6%			126 to 127 °C		
C[C@H](CCC(=O)NCc1cn(CC(=O)c2ccc(Cl)cc2)nn1)C1CCC2C3CCC4C[C@H](O)CC[C@]4(C)C3C[C@H](O)[C@@]21C (stereo partly drawn) [6de, (4R)-N-((1-(2-(4-Chlorophenyl)-2-oxoethyl)-1H-1,2,3-triazol-4-yl)methyl)-4-((3R,10S,12S,13R)-3,12-dihydroxy-10,13-dimethylhexadecahydro-1H-cyclopenta[a]phenanthren-17-yl)pentanamide]	86.8%		62.9%		90.5%			100 to 101 °C		
C[C@H](CCC(=O)NCc1cn(CC(=O)c2ccc(Br)cc2)nn1)C1CCC2C3CCC4C[C@H](O)CC[C@]4(C)C3C[C@H](O)[C@@]21C (stereo partly drawn) [6df, (4R)-N-((1-(2-(4-Bromophenyl)-2-oxoethyl)-1H-1,2,3-triazol-4-yl)methyl)-4-((3R,10S,12S,13R)-3,12-dihydroxy-10,13-dimethylhexadecahydro-1H-cyclopenta[a]phenanthren-17-yl)pentanamide]	86.5%		48.4%		93.5%			135 to 136 °C		
CC(C)CCCC(C)C1CCC2C3CCC4CC(=O)C(n5cc(-c6ccccn6)nn5)CC4(C)C3CCC12C (stereo not drawn) [III]									43.5%	
Cc1cccc(-c2cn(CC3CC4C5CC=C6CC(O)CCC6(C)C5CCC4(C)C3O)nn2)c1 (stereo not drawn) [II]									96.9%	
COc1ccc2c(c1)CCC1C2CCC2(C)C(O)C(n3cc(-c4ccc(C(C)(C)C)cc4)nn3)CC12 (stereo not drawn) [IV]										5.08 µM
